# Where “and” joins values, the source holds several entries; their conditions need not be identical. Equal entries are not always repeated. Where two headings read alike, the source gives them in different places.
# Legend:
# [1] = cited from earlier work
# [2] = Water vapor uptake (GVS); assay type: physicochemical
# [3] = Solubility of sulfasalazine, Form A meglumine salt and pharmaceutical compositions (HPLC); assay type: physicochemical
# Protocol: The mobile phase consists of mobile phase (A): 1.13 g sodium dihydrogen phosphate and 2.5 g sodium acetate are dissolved in 1000 mL purified water. The pH is afterwards adjusted with acetic acid (100%) to 4.8. and mobile phase (B): 1 part mobile phase A is mixed with 4 parts of methanol for chromatography. The flow rate was 1.0 mL/min, injection volume 5 μL and detection wavelengths 320 nm (HP DAD series 1100). Run time is 10 min. Quantitation was performed using external standard methodology. The assay method has been validated with respect to selectivity, repeatability and linearity. Samples are prepared with dilute ammonia R3 PhEur.
# The saturated solutions were filtrated using centrifuge filters (Nylon, […]) and the clear supernatants were respectively injected either directly or after dilution with dilute ammonia R3 PhEur.
# The resulting solution is further diluted with phosphate buffer (pH 6.8) to 1% v/v solution prior. The resulting phosphate buffer solution is diluted with dilute ammonia R3 prior to injection.
# [4] = tested on: binding of TNF-alpha to its receptor; settings: 125I-TNF-alpha displacement; cited from earlier work
# [5] = cited from earlier work; remark: listed apart in the source
# [6] = physchem; settings: de-ionized water, 24 °C
# [7] = in vitro; settings: human, Caco-2
smiles,measurement,setting,value
Nc1ccc(S(=O)(=O)Nc2ccccn2)cc1 [sulfapyridine],systemic bioavailability,[1]; metabolite formed from non-absorbed sulfasalazine by gut flora,about 60%
"CCNCC.O=C(O)c1cc(N=Nc2ccc(S(=O)(=O)Nc3ccccn3)cc2)ccc1O [Form A diethylamine salt, diethylamine 2-hydroxy-5-[2-[4-[(2-pyridinylamino)sulfonyl]phenyl]diazenyl]-benzoate, crystal Form A]",water vapor uptake (GVS; % w/w) at 30% RH,[2],0.3 % w/w
same,water vapor uptake (GVS; % w/w) at 80% RH,[2],0.5 % w/w
"O=C(O)c1cc(N=Nc2ccc(S(=O)(=O)Nc3ccccn3)cc2)ccc1O [sulfasalazine, 2-hydroxy-5-[2-[4-[(2-pyridinylamino)sulfonyl]phenyl]diazenyl]-benzoic acid]",solubility at 24 h,"[3]; pH 5.9, thermodynamic from solid, water, room temperature, read-out: Solubility (mg/mL) Water",0.06 mg/mL
same,solubility at 24 h,"[3]; pH 6.3, thermodynamic from solid, FaSSIF-V2 medium, room temperature (20-25° C.), saturated solution, read-out: Solubility (mg/mL) FaSSIF-V2",0.78 mg/mL
same,binding of TNF-alpha to its receptor,[4],inhibits
same,solubility in de-ionized water at 24° C.,"[5]; 24° C., literature value",0.03 mg/mL and 0.031 mg/mL
same,solubility class according to United States Pharmacopoeia (practically insoluble),[5]; USP classification,< 0.1 mg/mL
same,solubility in water,[5]; water,less than 5 mg/100 ml
same,solubility,[6],0.06 mg/mL
same,half-life,[1]; intravenously administered,approximately 7.6±3.6 hours
same,median peak concentration (time),"[1]; man, oral",6 h
same,"Papp A→B at 180 min, 200 μg/mL",[7],11.6 nm/s
same,"Papp A→B at 180 min, 2000 μg/mL",[7],8.1 nm/s
same,"Papp B→A at 180 min, 200 μg/mL",[7],47.6 nm/s
same,"Papp B→A at 180 min, 2000 μg/mL",[7],27.9 nm/s
"CNCC(O)C(O)C(O)C(O)CO.O=C(O)c1cc(N=Nc2ccc(S(=O)(=O)Nc3ccccn3)cc2)ccc1O [Form A meglumine salt, D(−)-N-methylglucamine 2-hydroxy-5-[2-[4-[(2-pyridinylamino)sulfonyl]phenyl]diazenyl]-benzoate, crystal Form A]",solubility in de-ionized water at 24° C. and pH 6.6,,> 54 mg/mL
same,Solubility (mg/mL) FaSSIF-V2,"[3]; FaSSIF-V2 medium, room temperature (20-25° C.), saturated solution",15.3 mg/mL
same,Solubility (mg/mL) Water,"[3]; water, diluted in phosphate Buffer pH 6.8",60.3 mg/mL
same,Solubility (mg/mL) Water,"[3]; water, room temperature",104.8 mg/mL
same,water vapor uptake (GVS; % w/w) at 30% RH,[2]; listed as 4.1,< 0.4 % w/w
same,water vapor uptake (GVS; % w/w) at 30% RH,[2]; listed as 4.2,0.4 % w/w
same,water vapor uptake (GVS; % w/w) at 80% RH,[2],1.1 % w/w
same,water vapor uptake (GVS; % w/w) at 80% RH,[2]; listed as 4.1,< 0.9 % w/w
"C1CNCCN1.O=C(O)c1cc(N=Nc2ccc(S(=O)(=O)Nc3ccccn3)cc2)ccc1O [Form A piperazine salt, piperazine 2-hydroxy-5-[2-[4-[(2-pyridinylamino)sulfonyl]phenyl]diazenyl]-benzoate, crystal Form A]",water vapor uptake (GVS; % w/w) at 30% RH,[2],0.4 % w/w
same,water vapor uptake (GVS; % w/w) at 80% RH,[2],0.9 % w/w

# — patent US12274706B2 (MEDAC GESELLSCHAFT FUER KLINISCHE SPEZIALPRAEPARATE MBH, priority 2017, dated 2025)
